Experimental data: paper PMC7824787, “Design, Synthesis and In Vitro Investigation of Novel Basic Celastrol Carboxamides as Bio-Inspired Leishmanicidal Agents Endowed with Inhibitory Activity against Leishmania Hsp90” (Biomolecules, 2021)
Read-outs that look alike come from different tables or passages of the source.

Tests used:
[1] = tested on: THP-1; assay: Cytotoxicity on THP-1 (MTT); type: cell-based, human; conditions: Homo sapiens, THP-1; PMA-differentiated, 72 h, MTT; read-out: Healthy Cell Lines IC50, THP-1
Description: (§1) Cytotoxicity was evaluated on human microvascular endothelial cells (HMEC-1, provided by the Centers for Disease Control, Atlanta, GA, USA), on immortalized mouse C57Bl/6 bone marrow derived macrophages (BMDM) from wild type lineage (generated in the laboratories of Drs. Douglas Golenbock and Kate Fitzgerald, University of Massachusetts, Worcester, MA, USA) and on a human acute monocytic leukaemia cell line (THP-1).
(§2) HMEC-1 were maintained in MCDB 131 medium (Invitrogen, Milan, Italy) supplemented with 10% fetal calf serum (HyClone), 10 ng/mL of epidermal growth factor, 1 μg/mL of hydrocortisone, 2 mM glutamine and 20 mM HEPES buffer, at 37 °C in 5% CO2. BMDM were maintained in DMEM (Euroclone) medium supplemented with 10% fetal bovine serum (HyClone, Celbio, Milan, Italy), 2 mM glutamine, and 25 mM of HEPES buffer solution (Euroclone). THP-1 were maintained in RPMI supplemented with 10% heat-inactivated FCS, 50 µM 2-mercaptoethanol, 10 µM sodium pyruvate, 20 mM HEPES, and 2 mM glutamine. In order to achieve differentiation into macrophages, cells were treated with 10 ng/mL phorbol myristate acetate (PMA) for 72 h.
(§3) For the cytotoxicity assay, cells were seeded in 96 well flat bottom tissue culture clusters (Costar, New York, NY, USA) at the following concentrations: HMEC 10^5 cell/mL, BMDM at 10^6 cell/mL, THP1 at 5 × 10^5 cell/mL. After 24 h, cells were treated with serial dilutions of test compounds in a final volume of 200 µL/well. Cell proliferation was evaluated after 72 h using the MTT assay.
(§4) The absorbances were measured with a microplate spectrophotometer (Synergy 4-Biotek) at a test wavelength of 550 nm and a reference wavelength of 650 nm. The results are expressed as IC50 as the concentration inhibiting 50% of cell growth. Each IC50 value is the mean and standard deviation of at least three separate experiments performed in duplicate.

[2] = tested on: BMDM; assay: Cytotoxicity on BMDM (MTT); type: cell-based, mouse; conditions: Mus musculus, BMDM; 72 h, MTT; read-out: Healthy Cell Lines IC50, BMDM
Description: as §1, §2, §3, §4

[3] = tested on: L. infantum promastigotes; assay: Antileishmanial activity on L. infantum promastigotes (MTT); type: cell-based
[4] = Leishmania infantum, 72 h, 23 °C, MTT, read-out: Leishmania Promastigotes IC50, L. infantum
[5] = 72 h, 23 °C, MTT; read-out: Leishmania Promastigotes IC50, L. infantum

SMILES | IC50 [3, 4] [µM] | IC50 [3, 5] [µM] | IC50 [1] [µM] | IC50 [2] [µM] | IC50 ([3]; Leishmania infantum; 72 h, 23 °C, MTT; read-out: Leishmania Promastigotes IC50, L. infantum) [µM]
CC1=C(O)C(=O)C=C2C1=CC=C1[C@@]2(C)CC[C@@]2(C)[C@@H]3C[C@](C)(C(=O)O)CC[C@]3(C)CC[C@]12C [CE, celastrol] | – | – | 0.9 ± 0.3 | 1.76 ± 0.43 | 0.21 ± 0.07
CC1=C(O)C(=O)C=C2C1=CC=C1[C@@]2(C)CC[C@@]2(C)[C@@H]3C[C@](C)(C(=O)NCCN4CCCC4)CC[C@]3(C)CC[C@]12C [compound 3, (2R,4aS,6aS,12bR,14aS,14bR)-10-hydroxy-2,4a,6a,9,12b,14a-hexamethyl-11-oxo-N-(2-(pyrrolidin-1-yl)ethyl)-1,2,3,4,4a,5,6,6a,11,12b,13,14,14a,14b-tetradecahydropicene-2-carboxamide] | < 0.1 | 0.06 ± 0.01 | 2.79 ± 0.44 | 4.53 ± 0.05 | –
CC1=C(O)C(=O)C=C2C1=CC=C1[C@@]2(C)CC[C@@]2(C)[C@@H]3C[C@](C)(C(=O)NCC45CCCN4CCC5)CC[C@]3(C)CC[C@]12C [compound 5, (2R,4aS,6aS,12bR,14aS,14bR)-N-((hexahydro-1H-pyrrolizin-7a-yl)methyl)-10-hydroxy-2,4a,6a,9,12b,14a-hexamethyl-11-oxo-1,2,3,4,4a,5,6,6a,11,12b,13,14,14a,14b-tetradecahydropicene-2-carboxamide] | 0.12 ± 0.02 | – | 1.88 ± 0.34 | 2.68 ± 0.81 | –
CC1=C(O)C(=O)C=C2C1=CC=C1[C@@]2(C)CC[C@@]2(C)[C@@H]3C[C@](C)(C(=O)NCCSS(C)(=O)=O)CC[C@]3(C)CC[C@]12C [compound 9, S-(2-((2R,4aS,6aS,12bR,14aS,14bR)-10-hydroxy-2,4a,6a,9,12b,14a-hexamethyl-11-oxo-1,2,3,4,4a,5,6,6a,11,12b,13,14,14a,14b-tetradecahydropicene-2-carboxamido)ethyl) methanesulfonothioate] | 2 to 4 | 2.31 ± 0.28 | 3.28 ± 0.9 | 13 ± 2.48 | –

Continued by falling IC50 [3, 4], values first:

IC50 [3, 4] [µM] | IC50 [3, 5] [µM] | SMILES | IC50 [1] [µM] | IC50 [2] [µM] | IC50 ([3]; Leishmania infantum; 72 h, 23 °C, MTT; read-out: Leishmania Promastigotes IC50, L. infantum) [µM]
0.09 ± 0.03 | – | CC1=C(O)C(=O)C=C2C1=CC=C1[C@@]2(C)CC[C@@]2(C)[C@@H]3C[C@](C)(C(=O)NCCNc4ccnc5cc(Cl)ccc45)CC[C@]3(C)CC[C@]12C [compound 6, (2R,4aS,6aS,12bR,14aS,14bR)-N-(2-((7-chloroquinolin-4-yl)amino)ethyl)-10-hydroxy-2,4a,6a,9,12b,14a-hexamethyl-11-oxo-1,2,3,4,4a,5,6,6a,11,12b,13,14,14a,14b-tetradecahydropicene-2-carboxamide] | 0.85 ± 0.24 | 2.15 ± 0.02 | –
0.06 ± 0.02 | – | CC1=C(O)C(=O)C=C2C1=CC=C1[C@@]2(C)CC[C@@]2(C)[C@@H]3C[C@](C)(C(=O)NCCN4CCCCC4)CC[C@]3(C)CC[C@]12C [compound 1, (2R,4aS,6aS,12bR,14aS,14bR)-10-hydroxy-2,4a,6a,9,12b,14a-hexamethyl-11-oxo-N-(2-(piperidin-1-yl)ethyl)-1,2,3,4,4a,5,6,6a,11,12b,13,14,14a,14b-tetradecahydropicene-2-carboxamide] | 2.08 ± 0.24 | 3.61 ± 0.38 | –
